IC50 data for 1 compound are collected here from patent US7067532B2, “Substituted quinolines as antitumor agents” (AstraZeneca, priority 2000, dated 2006).

pIC50: −log10 of the molar value.

This experiment concerns HT29 human colon tumour cells. The experiment is described as follows: Cell proliferation assays. The class given is cell-based. Particulars: HT-29, 72 hours. The procedure:
Cell Proliferation Assays Cells were seeded into multi-well plates at 20000–40000 cells/ml in growth medium containing 5% FCS and incubated overnight at 37° C. The compounds were prepared in fresh medium at an appropriate concentration and added to the wells containing the cells. These were then incubated for a further 72 hours. Cells were then either removed from the wells by incubating with trypsin/EDTA and counted using a Coulter counter, or treated with XTT/PMS in PBSA and optical densities read at 450 nm.

Regarding `CNC(=O)COc1ccccc1Oc1ccc(Nc2c(C#N)cnc3cc(NCCCN4CCOCC4)c(OC)cc23)cc1` [Compound 11], the pIC50 (in general, the negative decadic logarithm of the IC50, by convention in mol/L) is 5.89.
